According to patent US6133275A, “3-phenylpyrrolidine alpha-1 adrenergic compounds” (Abbott Laboratories, priority 1998, dated 2000):
Counter-ions that a name gives are not always drawn.

What was measured:
α1a (Rat) = biological target: T1, α1a (Rat) (Rattus norvegicus, UniProt P43140); experiment: Radioligand binding, displacement of [3H]-prazosin from cloned α1a (rat) expressed in LTK cells; conditions: [3H]-prazosin 0.2 nM; cloned rat α1a in LTK cell membranes; 25° C., 50 minutes
T1 sequence (P43140 1-466): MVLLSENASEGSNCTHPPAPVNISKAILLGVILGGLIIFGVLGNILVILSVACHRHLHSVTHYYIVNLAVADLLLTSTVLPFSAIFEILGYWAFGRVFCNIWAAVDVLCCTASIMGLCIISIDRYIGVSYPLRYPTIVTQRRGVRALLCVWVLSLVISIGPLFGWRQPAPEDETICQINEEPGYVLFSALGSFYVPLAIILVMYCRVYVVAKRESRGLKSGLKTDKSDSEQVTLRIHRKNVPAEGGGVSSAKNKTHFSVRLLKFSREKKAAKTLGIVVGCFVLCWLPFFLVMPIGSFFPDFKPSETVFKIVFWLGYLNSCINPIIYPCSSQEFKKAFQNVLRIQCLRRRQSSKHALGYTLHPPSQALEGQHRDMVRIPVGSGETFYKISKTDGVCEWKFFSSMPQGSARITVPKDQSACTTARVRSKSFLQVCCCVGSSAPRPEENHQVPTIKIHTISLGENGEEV

α1a (Bovine) = biological target: T2, α1a (Bovine) (Bos taurus, UniProt P18130); experiment: Radioligand binding, displacement of [3H]-prazosin from cloned α1a (bovine) expressed in LTK cells; conditions: [3H]-prazosin 0.2 nM; cloned bovine α1a in LTK cell membranes; 25° C., 50 minutes
T2 sequence (P18130 1-466): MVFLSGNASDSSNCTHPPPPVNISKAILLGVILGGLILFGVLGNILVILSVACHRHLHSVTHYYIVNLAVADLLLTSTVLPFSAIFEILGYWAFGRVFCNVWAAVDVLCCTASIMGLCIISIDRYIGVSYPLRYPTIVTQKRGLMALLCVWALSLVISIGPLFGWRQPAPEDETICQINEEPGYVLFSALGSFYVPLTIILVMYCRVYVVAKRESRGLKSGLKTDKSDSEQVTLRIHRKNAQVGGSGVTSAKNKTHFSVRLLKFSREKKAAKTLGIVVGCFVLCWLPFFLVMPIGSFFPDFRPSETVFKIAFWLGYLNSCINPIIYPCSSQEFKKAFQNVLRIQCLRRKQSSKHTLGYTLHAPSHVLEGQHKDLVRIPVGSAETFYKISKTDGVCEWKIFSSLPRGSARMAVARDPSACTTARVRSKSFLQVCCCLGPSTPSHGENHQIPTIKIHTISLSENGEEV

α1b (Hamster) = biological target: T3, α1b (Hamster) (Mesocricetus auratus, UniProt P18841); experiment: Radioligand binding, displacement of [3H]-prazosin from cloned α1b (hamster) expressed in LTK cells; conditions: [3H]-prazosin 0.2 nM; cloned hamster α1b in LTK cell membranes; 25° C., 50 minutes
T3 sequence (P18841 1-515): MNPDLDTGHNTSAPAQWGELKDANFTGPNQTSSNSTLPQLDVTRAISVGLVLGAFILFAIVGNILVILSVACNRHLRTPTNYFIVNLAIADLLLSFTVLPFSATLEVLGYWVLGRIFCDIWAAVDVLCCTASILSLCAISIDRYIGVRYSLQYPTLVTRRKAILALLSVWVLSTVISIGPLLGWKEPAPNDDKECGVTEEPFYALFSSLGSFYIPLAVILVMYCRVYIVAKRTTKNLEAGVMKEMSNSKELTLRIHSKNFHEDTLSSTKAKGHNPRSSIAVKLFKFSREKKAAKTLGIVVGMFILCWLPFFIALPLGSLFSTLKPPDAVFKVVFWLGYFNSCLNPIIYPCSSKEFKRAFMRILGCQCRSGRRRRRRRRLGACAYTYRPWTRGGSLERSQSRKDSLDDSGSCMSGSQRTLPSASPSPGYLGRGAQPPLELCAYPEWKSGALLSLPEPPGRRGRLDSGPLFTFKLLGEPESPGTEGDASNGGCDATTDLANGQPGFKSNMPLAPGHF

α1d (rat) = biological target: T4, α1d (rat) (Rattus norvegicus, UniProt P23944); experiment: Radioligand binding, displacement of [3H]-prazosin from cloned α1d (rat) expressed in LTK cells; conditions: [3H]-prazosin 0.2 nM; cloned rat α1d in LTK cell membranes; 25° C., 50 minutes
T4 sequence (P23944 1-561): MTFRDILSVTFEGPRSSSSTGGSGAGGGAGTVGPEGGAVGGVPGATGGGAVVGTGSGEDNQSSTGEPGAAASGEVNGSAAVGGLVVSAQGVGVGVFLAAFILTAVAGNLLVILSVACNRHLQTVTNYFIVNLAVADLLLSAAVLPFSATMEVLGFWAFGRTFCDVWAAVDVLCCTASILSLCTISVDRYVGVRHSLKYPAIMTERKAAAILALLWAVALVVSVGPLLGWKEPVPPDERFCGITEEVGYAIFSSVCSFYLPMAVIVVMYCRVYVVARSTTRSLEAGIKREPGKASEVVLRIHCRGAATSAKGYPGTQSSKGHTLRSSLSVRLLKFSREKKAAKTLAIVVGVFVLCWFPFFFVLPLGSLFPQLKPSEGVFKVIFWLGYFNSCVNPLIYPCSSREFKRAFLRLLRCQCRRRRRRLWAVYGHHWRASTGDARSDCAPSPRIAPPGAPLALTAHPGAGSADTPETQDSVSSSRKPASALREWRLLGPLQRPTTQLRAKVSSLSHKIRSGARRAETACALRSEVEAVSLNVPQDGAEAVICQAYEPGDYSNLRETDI

Row | SMILES | Ki (α1a (Rat)) | Ki (α1a (Bovine)) | Ki (α1b (Hamster)) | Ki (α1d (rat))
1 | COc1ccccc1[C@H]1CCN(CCCCn2c(=O)[nH]c3c(sc4ccc(Cl)nc43)c2=O)C1 [Example 10, (R)-8-chloro-3-[4-[3-(2-methoxyphenyl)-1-pyrrolidinyl]butyl]pyrido[2',3':4,5]thieno[3,2-d]pyrimidine-2,4(1H,3H)-dione, Dihydrochloride] | 0.22 nM | 0.05 nM | 1.18 nM | 0.06 nM
2 | COc1cccc([C@H]2CCN(CCn3c(=O)[nH]c4c(sc5cccnc54)c3=O)C2)c1 [Example 20, (R)-3-[2-[3-(3-methoxyphenyl)-1-pyrrolidinyl]ethyl]pyrido[2',3':4,5]thieno[3,2-d]pyrimidine-2,4(1H,3H)-dione, Dihydrochloride] | 46.3 nM | 12 nM | 194 nM | 69.4 nM
3 | COc1ccccc1[C@H]1CCN(CCCCN2C(=O)c3ccccc3S2(=O)=O)C1 [Example 17, (R)-2-[4-[3-(2-methoxyphenyl)-1-pyrrolidinyl]butyl]-1,2-benzoisothiazol-3(2H)-one, 1,1-dioxide Monohydrochloride] | 0.13 nM | 0.03 nM | 1.1 nM | 0.22 nM
4 | COc1ccccc1[C@H]1CCN(CCCCn2c(=O)[nH]c3c(sc4nccnc43)c2=O)C1 [Example 13, (R)-3-[4-[3-(2-Methoxyphenyl)-1-pyrrolidinyl]butyl]pyrazino[2',3':4,5]thieno[3,2-d]pyrimidine-2,4(1H,3H)-dione, Dihydrochloride] | 0.21 nM | 0.07 nM | 2.99 nM | 0.36 nM
5 | COc1ccccc1[C@@H]1CCN(CCCCn2c(=O)[nH]c3c(sc4cccnc43)c2=O)C1 [Example 29, (S)-3-[4-[3-(2-methoxyphenyl)-1-pyrrolidinyl]butyl]pyrido[2',3':4,5]thieno[3,2-d]pyrimidine-2,4(1H,3H)-dione, Dihydrochloride] | 1.98 nM | 0.69 nM | 4.02 nM | 2.02 nM
6 | COc1ccccc1[C@H]1CCN(CCCCN2C(=O)CCc3ccccc32)C1 [Example 19, (R)-3,4-dihydro-1-[4-[3-(2-methoxyphenyl)-1-pyrrolidinyl]butyl]-2(1H)-quinolinone Monohydrochloride] | 0.57 nM | 0.15 nM | 0.93 nM | 0.23 nM
7 | COc1ccccc1[C@@H]1CCN(CCn2c(=O)[nH]c3c(sc4cccnc43)c2=O)C1 [Example 27, (S)-3-[2-[3-(2-methoxyphenyl)-1-pyrrolidinyl]ethyl]pyrido[2',3':4,5]thieno[3,2-d]pyrimidine-2,4(1H,3 H)-dione, Dihydrochloride] | 14.4 nM | 2.46 nM | 15.7 nM | 8.48 nM
8 | COc1ccccc1[C@H]1CCN(CCCCCn2c(=O)[nH]c3c(sc4ncccc43)c2=O)C1 [Example 9, (R)-3-[5-[3-(2-methoxyphenyl)-1-pyrrolidinyl]pentyl]pyrido[3',2':4,5]thieno[3,2-d]pyrimidine-2,4(1H,3H)-dione, Dihydrochloride] | 3.3 nM | 0.32 nM | 7.38 nM | 2.35 nM
9 | COc1ccccc1[C@H]1CCN(CCCCN2C(=O)c3ccccc3C2=O)C1 [Example 12, (R)-2-[4-[3-(2-methoxyphenyl)-1-pyrrolidinyl]butyl]-1H-isoindole-1,3(2H)-dione, Monohydrochloride] | 0.32 nM | 0.06 nM | 0.96 nM | 0.28 nM
10 | COc1ccccc1[C@H]1CCN(CCCCn2c(=O)[nH]c3c(sc4ccccc43)c2=O)C1 [Example 2, (R)-3-[4-[3-(2-Methoxyphenyl)-1-pyrrolidinyl]butyl]-[1]benzothieno[3,2-d]pyrimidine-2,4(1H,3H)-dione Monohydrochloride] | 0.18 nM | 0.02 nM | 0.62 nM | 0.03 nM
11 | COc1cccc([C@H]2CCN(CCn3c(=O)[nH]c4c(sc5ncccc54)c3=O)C2)c1 [Example 23, (R)-3-[2-[3-(3-methoxyphenyl)-1-pyrrolidinyl]ethyl]pyrido[3',2':4,5]thieno[3,2-d]pyrimidine-2,4(1H,3H)-dione, Dihydrochloride] | 134 nM | 27 nM | 331 nM | 86.4 nM
12 | COc1ccccc1[C@H]1CCN(CCCCn2c(=O)[nH]c3c(sc4ncc(Cl)nc43)c2=O)C1 [Example 14, (R)-8-Chloro-3-[4-[3-(2-methoxyphenyl)-1-pyrrolidinyl]butyl]pyrazino[2',3':4,5]thieno[3,2-d]pyrimidine-2,4(1H,3H)-dione, Dihydrochloride] | 0.22 nM | 0.09 nM | 5.9 nM | 0.47 nM
13 | COc1ccccc1[C@@H]1CCN(CCCn2c(=O)[nH]c3c(sc4cccnc43)c2=O)C1 [Example 28, (S)-3-[3-[3-(2-methoxyphenyl)-1-pyrrolidinyl]propyl]pyrido[2',3':4,5]thieno[3,2-d]pyrimidine-2,4(1H,3H)-dione, Dihydrochloride] | 25.8 nM | 10.3 nM | 88.6 nM | 27.8 nM
14 | COc1cccc([C@H]2CCN(CCCn3c(=O)[nH]c4c(sc5cccnc54)c3=O)C2)c1 [Example 21, (R)-3-[3-[3-(3-methoxyphenyl)-1-pyrrolidinyl]propyl]pyrido[2',3':4,5]thieno[3,2-d]pyrimidine-2,4(1H,3 H)-dione, Dihydrochloride] | 27.3 nM | 8 nM | 70.7 nM | 92.2 nM
15 | COc1ccccc1[C@H]1CCN(CCCn2c(=O)[nH]c3c(sc4cccnc43)c2=O)C1 [Example 5, (R)-3-[3-[3-(2-Methoxyphenyl)-1-pyrrolidinyl]propyl]pyrido[2',3':4,5]thieno[3,2-d]pyrimidine-2,4(1H,3H)-dione Dihydrochloride] | 2.05 nM | 1.25 nM | 9.68 nM | 2.25 nM
16 | COc1cccc([C@H]2CCN(CCCCn3c(=O)[nH]c4c(sc5ncccc54)c3=O)C2)c1 [Example 24, (R)-3-[4-[3-(3-methoxyphenyl)-1-pyrrolidinyl]butyl]pyrido[3',2':4,5]thieno[3,2-d]pyrimidine-2,4(1H,3H)-dione, Dihydrochloride] | 7.37 nM | 2.81 nM | 20 nM | 5.19 nM
17 | COc1ccccc1[C@H]1CCN(CCn2c(=O)[nH]c3c(sc4cccnc43)c2=O)C1 [Example 4, (R)-3-[2-[3-(2-Methoxyphenyl)-1-pyrrolidinyl]ethyl]pyrido[2',3':4,5]thieno[3,2-d]pyrimidine-2,4(1H,3H)-dione bis(hydrochloride) Salt] | 2.61 nM | 0.83 nM | 1.52 nM | 2.38 nM
